Source: PubChem BioAssay AID248 (DTP/NCI, 2004)
Several values for one entry are separate records, joined by “and”; a condition that tells them apart may be missing. Equal entries are not always repeated. Inconclusive results and toxic doses are left out.

Tested on: L1210 leukemia ip in BDF1 mice, survival T/C
Assay: NCI In Vivo Anticancer Drug Screen. Data for tumor model L1210 Leukemia (intraperitoneal) in B6D2F1 (BDF1) mice
Conditions: endpoint: mean survival time, higher = longer survival
How it was run: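 Mice bearing the transplanted tumor received compound or vehicle. Survival of the treated group was divided by that of the vehicle-treated control group to give the ratio.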

[1] = dose: 100.0 mg/kg/injection, schedule: Q01DX009 (ip), vehicle: saline with Tween-80
[2] = dose: 100.0 mg/kg/injection, schedule: Q04DX003 (ip), vehicle: saline with Tween-80
[3] = dose: 200.0 mg/kg/injection, schedule: Q01DX009 (ip), vehicle: saline with Tween-80
[4] = dose: 200.0 mg/kg/injection, schedule: Q04DX003 (ip), vehicle: saline with Tween-80
[5] = dose: 400.0 mg/kg/injection, schedule: Q01DX009 (ip), vehicle: saline with Tween-80
[6] = dose: 400.0 mg/kg/injection, schedule: Q04DX003 (ip), vehicle: saline with Tween-80
[7] = dose: 100.0 mg/kg/injection, schedule: Q01DX009 (ip), vehicle: Klucel (hydroxypropylcellulose) (HPC)
[8] = dose: 100.0 mg/kg/injection, schedule: Q04DX002 (ip), vehicle: Klucel (hydroxypropylcellulose) (HPC)
[9] = dose: 200.0 mg/kg/injection, schedule: Q01DX009 (ip), vehicle: Klucel (hydroxypropylcellulose) (HPC)
[10] = dose: 200.0 mg/kg/injection, schedule: Q04DX002 (ip), vehicle: Klucel (hydroxypropylcellulose) (HPC)
[11] = dose: 400.0 mg/kg/injection, schedule: Q04DX002 (ip), vehicle: Klucel (hydroxypropylcellulose) (HPC)
[12] = dose: 100.0 mg/kg/injection, schedule: Q04DX003 (ip), vehicle: Klucel (hydroxypropylcellulose) (HPC)
[13] = dose: 200.0 mg/kg/injection, schedule: Q04DX003 (ip), vehicle: Klucel (hydroxypropylcellulose) (HPC)
[14] = dose: 400.0 mg/kg/injection, schedule: Q04DX003 (ip), vehicle: Klucel (hydroxypropylcellulose) (HPC)
[15] = dose: 100.0 mg/kg/injection, schedule: Q01DX001 (ip), vehicle: saline with Tween-80
[16] = dose: 200.0 mg/kg/injection, schedule: Q01DX001 (ip), vehicle: saline with Tween-80
[17] = dose: 400.0 mg/kg/injection, schedule: Q01DX001 (ip), vehicle: saline with Tween-80
[18] = dose: 50.0 mg/kg/injection, schedule: Q01DX009 (ip), vehicle: Klucel (hydroxypropylcellulose) (HPC)
[19] = dose: 400.0 mg/kg/injection, schedule: Q01DX009 (ip), vehicle: Klucel (hydroxypropylcellulose) (HPC)
[20] = dose: 100.0 mg/kg/injection, schedule: Q01DX001 (ip), vehicle: saline
[21] = dose: 200.0 mg/kg/injection, schedule: Q01DX001 (ip), vehicle: saline
[22] = dose: 50.0 mg/kg/injection, schedule: Q01DX001 (ip), vehicle: saline

For `COC(OC)c1[nH]c(=S)[nH]c(=O)c1CCCc1ccccc1`, the T/C [1] was 94 % of control, the T/C [2] was 100 % of control and the T/C [3] was 105 % of control. The T/C [4] was 100 % of control, the T/C [5] was 86 % of control and the T/C [6] was 96 % of control.

For `COC(=O)N/N=C/c1ccccc1Cl`, the T/C [7] was 108 % of control, the T/C [8] was 93 % of control and the T/C [9] was 121 % of control. The T/C [10] was 104 % of control and the T/C [11] was 96 % of control.

`O=C1C=C(c2ccccc2)C(=O)O1` was tested, and the T/C [8] was 95 % of control, the T/C [10] was 92 % of control and the T/C [11] was 90 % of control.

In the case of `O=NN(CCCl)C(=O)C1CCC(C(=O)N(CCCl)N=O)CC1` (configuration not stated), the T/C (dose: 0.25 mg/kg/injection, schedule: Q01DX001 (ip), vehicle: carboxymethylcellulose (CMC)) is reported as 108 % of control, the T/C (dose: 0.5 mg/kg/injection, schedule: Q01DX001 (ip), vehicle: carboxymethylcellulose (CMC)) is reported as 117 % of control and the T/C (dose: 10.0 mg/kg/injection, schedule: Q01DX001 (ip), vehicle: carboxymethylcellulose (CMC)) is reported as 124 % of control. For the same molecule, the T/C (dose: 15.0 mg/kg/injection, schedule: Q01DX001 (ip), vehicle: carboxymethylcellulose (CMC)) was 123 % of control, the T/C (dose: 30.0 mg/kg/injection, schedule: Q01DX001 (ip), vehicle: carboxymethylcellulose (CMC)) was 118 % of control and the T/C (dose: 62.0 mg/kg/injection, schedule: Q01DX001 (ip), vehicle: carboxymethylcellulose (CMC)) was 87 % of control.

With `ClC(Cl)(Cl)c1cccc(C(Cl)(Cl)Cl)c1` the T/C [7] was 121 % of control, the T/C [12] was 105 % of control and the T/C [9] was 101 % of control. For the same molecule, the T/C [13] was 95 % of control and the T/C [14] was 95 % of control.

In the case of `Cc1cc2c(-c3ccccc3)c(C(=O)c3ccccc3)c(C(=O)c3ccccc3)c(-c3ccccc3)c2cc1C`, the T/C [15] is reported as 89 % of control, the T/C [16] is reported as 89 % of control and the T/C [17] is reported as 89 % of control.

For `N#Cc1c(=O)[nH]c2ccccc2[n+]1[O-]`, the T/C [18] was 107 % of control and the T/C [7] was 104 % of control.

With `C=CC(C(=O)OCC)C(O)CCC` (configuration not stated) the T/C [18] was 104 % of control, the T/C [7] was 95 % of control and the T/C [12] was 95 % of control. The T/C [9] was 101 % of control and 108 % of control, the T/C [13] was 94 % of control and the T/C [19] was 100 % of control. The T/C [14] was 101 % of control.

With `CC1CCCCN1CC(Cl)(Cl)Cl` (configuration not stated) the T/C [20] was 89 % of control and the T/C [21] was 94 % of control.

`COC1OC2COCOC2C2OCOC12` (configuration not stated) was tested, and the T/C (dose: 50.0 mg/kg/injection, schedule: Q04DX002 (ip), vehicle: Klucel (hydroxypropylcellulose) (HPC)) was 95 % of control, the T/C [8] was 98 % of control and the T/C [10] was 98 % of control.

For `CC(CN(C)C)C(O)(c1ccccc1)c1ccccc1` (configuration not stated), the T/C [22] was 98 % of control, the T/C [20] was 98 % of control and the T/C [21] was 104 % of control.

`CCOC(=O)c1nc2c(C)nc(N)nc2[nH]c1=O` was tested, and the T/C (dose: 100.0 mg/kg/injection, schedule: Q01DX001 (ip), vehicle: Klucel (hydroxypropylcellulose) (HPC)) was 107 % of control, the T/C (dose: 200.0 mg/kg/injection, schedule: Q01DX001 (ip), vehicle: Klucel (hydroxypropylcellulose) (HPC)) was 111 % of control and the T/C (dose: 400.0 mg/kg/injection, schedule: Q01DX001 (ip), vehicle: Klucel (hydroxypropylcellulose) (HPC)) was 96 % of control.

In the case of `Cc1ccc(NC(=O)c2c(Br)c(Br)c(Br)c(Br)c2C(=O)O)cc1Cl`, the T/C [7] is reported as 100 % of control, the T/C [8] is reported as 96 % of control and the T/C [9] is reported as 96 % of control. The T/C [10] was 110 % of control and the T/C [11] was 102 % of control.

With `Nc1ccc(CSc2ccccc2)cc1F` the T/C (dose: 100.0 mg/kg/injection, schedule: Q01DX009 (ip), vehicle: saline + alcohol) was 94 % of control, the T/C (dose: 200.0 mg/kg/injection, schedule: Q01DX009 (ip), vehicle: saline + alcohol) was 93 % of control and the T/C (dose: 400.0 mg/kg/injection, schedule: Q01DX009 (ip), vehicle: saline + alcohol) was 86 % of control.

`Cc1cc(C(=O)CCC(=O)O)c(C)s1` was tested, and the T/C (dose: 100.0 mg/kg/injection, schedule: Q01DX009 (ip), vehicle: gum acacia) was 97 % of control, the T/C (dose: 100.0 mg/kg/injection, schedule: Q04DX003 (ip), vehicle: gum acacia) was 102 % of control and the T/C (dose: 200.0 mg/kg/injection, schedule: Q01DX009 (ip), vehicle: gum acacia) was 90 % of control. For the same molecule, the T/C (dose: 200.0 mg/kg/injection, schedule: Q04DX003 (ip), vehicle: gum acacia) was 96 % of control, the T/C (dose: 400.0 mg/kg/injection, schedule: Q01DX009 (ip), vehicle: gum acacia) was 101 % of control and the T/C (dose: 400.0 mg/kg/injection, schedule: Q04DX003 (ip), vehicle: gum acacia) was 101 % of control.

`COc1ccccc1OC(=S)N(C)C` was tested, and the T/C [1] was 102 % of control, the T/C [2] was 103 % of control and the T/C [3] was 100 % of control. For the same molecule, the T/C [4] was 122 % of control, the T/C [5] was 93 % of control and the T/C [6] was 105 % of control.

`O=C1C2CC=CCC2C(=O)C2CC=CCC12` (configuration not stated) was tested, and the T/C [1] was 99 % of control, the T/C [3] was 93 % of control and the T/C [5] was 90 % of control.

For `C=CCCOC(C)=O`, the T/C (dose: 75.0 mg/kg/injection, schedule: Q04DX003 (ip), vehicle: saline) was 96 % of control, the T/C [7] was 107 % of control and the T/C (dose: 150.0 mg/kg/injection, schedule: Q04DX003 (ip), vehicle: saline) was 100 % of control. The T/C [9] was 97 % of control, the T/C (dose: 300.0 mg/kg/injection, schedule: Q04DX003 (ip), vehicle: saline) was 100 % of control and the T/C [19] was 100 % of control.

In the case of `O=NN(CCF)C(=O)NC1C2CC3CC(C2)CC1C3` (configuration not stated), the T/C (dose: 12.5 mg/kg/injection, schedule: Q01DX001 (ip), vehicle: other) is reported as 114 % of control, the T/C (dose: 25.0 mg/kg/injection, schedule: Q01DX001 (ip), vehicle: other) is reported as 123 % of control and the T/C (dose: 50.0 mg/kg/injection, schedule: Q01DX001 (ip), vehicle: other) is reported as 167 % of control.

For `CC(CC(C)(C)C)C(=O)CCC(C)(C)C` (configuration not stated), the T/C [15] was 103 % of control, the T/C [16] was 95 % of control and the T/C [17] was 101 % of control.

With `O=C(Nc1ccccc1Cl)Oc1c(Cl)cc(Cl)c2ccccc12` the T/C (dose: 25.0 mg/kg/injection, schedule: Q01DX009 (ip), vehicle: Klucel (hydroxypropylcellulose) (HPC)) was 100 % of control, the T/C [18] was 105 % of control and the T/C [8] was 91 % of control.

With `CS(=O)(=O)Oc1ccc(S(=O)(=O)F)cc1Cl` the T/C [8] was 102 % of control and the T/C [10] was 94 % of control.

In the case of `Clc1c(CBr)ccc(CBr)c1Cl`, the T/C (dose: 6.25 mg/kg/injection, schedule: Q01DX009 (ip), vehicle: saline with Tween-80) is reported as 91 % of control, the T/C (dose: 6.25 mg/kg/injection, schedule: Q04DX003 (ip), vehicle: Klucel (hydroxypropylcellulose) (HPC)) is reported as 95 % of control and the T/C (dose: 12.5 mg/kg/injection, schedule: Q01DX009 (ip), vehicle: saline with Tween-80) is reported as 89 % of control. The T/C (dose: 12.5 mg/kg/injection, schedule: Q04DX003 (ip), vehicle: Klucel (hydroxypropylcellulose) (HPC)) was 92 % of control, the T/C (dose: 25.0 mg/kg/injection, schedule: Q01DX009 (ip), vehicle: saline with Tween-80) was 96 % of control and the T/C (dose: 25.0 mg/kg/injection, schedule: Q04DX003 (ip), vehicle: Klucel (hydroxypropylcellulose) (HPC)) was 93 % of control.

For `CCOC(=O)Nc1cc2n[nH]nc2c(NC(c2ccccc2)c2ccccc2)n1`, the T/C [2] was 94 % of control, the T/C [4] was 87 % of control and the T/C [6] was 92 % of control.

In the case of `COc1ccc(CNCCN2CC2)cc1`, the T/C (dose: 10.0 mg/kg/injection, schedule: Q01DX009 (ip), vehicle: Klucel (hydroxypropylcellulose) (HPC)) is reported as 108 % of control, the T/C (dose: 20.0 mg/kg/injection, schedule: Q01DX009 (ip), vehicle: Klucel (hydroxypropylcellulose) (HPC)) is reported as 106 % of control and the T/C (dose: 40.0 mg/kg/injection, schedule: Q01DX009 (ip), vehicle: Klucel (hydroxypropylcellulose) (HPC)) is reported as 98 % of control.

For `C(=C\c1nc2ccccc2[nH]1)/c1nc2ccccc2[nH]1`, the T/C [22] was 108 % of control, the T/C [20] was 96 % of control and the T/C [21] was 96 % of control. For the same molecule, the T/C (dose: 400.0 mg/kg/injection, schedule: Q01DX001 (ip), vehicle: saline) was 106 % of control.

`C/C=C(\Br)C(=O)O` was tested, and the T/C (dose: 100.0 mg/kg/injection, schedule: Q04DX002 (ip), vehicle: other) was 104 % of control, the T/C [2] was 92 % of control and the T/C (dose: 200.0 mg/kg/injection, schedule: Q04DX002 (ip), vehicle: other) was 104 % of control.
